In US7169813B2, “4-oxo-fenretinide, administered alone and in combination with fenretinide, as preventive and therapeutic agent for cancer” (Fondazione IRCCS “Istituto Nazionale Dei Tumori”, priority 2004, dated 2007):
Read-outs that look alike come from different tables or passages of the source.

How the values were obtained:
A2780/HPR = assay: Apoptosis induction (Cell Death Detection ELISA, DNA fragmentation); type: cell-based, human; conditions: 5 μM, 24 hr
Description: Although the mechanism of action of 4-HPR is not well understood, its tumor growth inhibitory effects have been attributed to apoptosis induction (Supino et al., Int. J. Cancer, 1996, 65:491–497). The apoptosis inducing effects of 4-oxo-4-HPR were compared with those of 4-HPR in the human ovarian carcinoma cell line A2780 and in its counterpart A2780/HPR, with induced resistance to 4-HPR. Apoptosis was evaluated by a Cell Death Detection ELISA Plus Assay Kit (Roche Diagnostic GmbH, Germany) according to the manufacturer's instructions. This assay quantitates the amount of cytoplasmic histone-associated DNA fragments which increases during apoptosis. Cells were seeded in 96-well cell culture plates and treated the day after with 5 μM 4-oxo-4-HPR or 4-HPR for 24 hr.

GI-LI-N = assay: Growth inhibition (sulforhodamine B assay); type: cell-based, human; conditions: for IC50: Homo sapiens, 72 h, read-out: 50% Inhibitory Concentrations (IC50) at 72 h
Description: (§1) The following human breast tumor cell lines, obtained from Dr. R. Sutherland (Garvan Institute, Sydney, Australia) were tested: T-47D, BT-20 and MCF-7. The following human neuroblastoma cell lines, purchased from ATCC, were tested: SK-N-BE, SK-N-SH, SK-N-MC, and GI-LI-N. All cell lines were grown in monolayer, in medium containing 10% fetal bovine serum (Invitrogen) in 5% CO2 at 37° C. The medium for A2780, A2780/HPR, IGROV-1, OVCA432, SKOV-3, T-47D, BT-20, MCF-7, GI-LI-N and SK-N-BE cells was RPMI 1640 (Cambrex, Verviers, Belgium) and the medium for OAW42, SK-N-MC and SK-N-SH cells was EMEM (ATCC).
(§2) For the growth inhibition assays, cells were seeded at a density of 3500 cells per well in 96 cluster tissue culture plates, and treated 24 hr after seeding with different concentrations of 4-oxo-4-HPR or 4-HPR. 4-oxo-4-HPR was dissolved in absolute ethanol and 4-HPR (obtained from Dr. J. A. Crowell —NCI Bethesda, Md., USA) was dissolved in Me2SO. […] Control cultures received the same amount of ethanol or Me2SO as the treated cultures. 72 hr after treatment cell number was estimated by using the sulforhodamine B assay according to Monks et al., (J. Natl. Cancer, 1991, 11: 757–766). The survival of treated cells was calculated for the various drug concentrations as percentage of the survival of control cells. The antiproliferative activity of 4-oxo-4-HPR and 4-HPR in each cell line, was tested in three separate experiments and the average values ±SD are reported in FIGS. 2, 3, and 4.

SK-N-MC = assay: Growth inhibition (sulforhodamine B assay); type: cell-based, human; conditions: for IC50: Homo sapiens, 72 h, read-out: 50% Inhibitory Concentrations (IC50) at 72 h
Description: as §1, §2

SK-N-BE = assay: Growth inhibition (sulforhodamine B assay); type: cell-based, human; conditions: for IC50: Homo sapiens, 72 h, read-out: 50% Inhibitory Concentrations (IC50) at 72 h
Description: as §1, §2

SK-N-SH = assay: Growth inhibition (sulforhodamine B assay); type: cell-based, human; conditions: for IC50: Homo sapiens, 72 h, read-out: 50% Inhibitory Concentrations (IC50) at 72 h
Description: as §1, §2

plasma retinol levels = assay: Effects on plasma retinol in mice; type: in vivo; conditions: mice i.p. 120 mg/kg for 4 days; for Retinol % reduction: plasma, baseline vs 5 h after last treatment, control 22
Description: One of the main side effects of 4-HPR, is diminished dark adaptation or nyctalopia (Formelli et al., FASEB J., 1996, 10:1014–1024) which is caused by a decrease in plasma retinol levels (Formelli et al., Cancer Res., 49:6149–6152). The influence of 4-oxo-4-HPR on plasma retinol levels was assessed in mice and was compared with the effects caused by 4-HPR. Animal studies were approved by the Ethics Committee for Animal Experimentation of Istituto Nazionale Tumori (Milan Italy) and were carried out according to national and international guidelines (Italian Governing Law, Legislative decree 116, Jan. 27, 1992 and UKCCCR guidelines for the welfare of animals in experimental neoplasia. Br. J. Cancer 1988, 58:109–113). Female Swiss nude mice (7–9 weeks old) were supplied by Charles River (Calco, Italy) and kept in laminar air-flow rooms in sterilised cages, with bedding, food and acidified water. 4-HPR was obtained from Dr. J. A. Crowell —NCI Bethesda, Md., USA. 4-oxo-4-HPR and 4-HPR were dissolved in absolute ethanol and then diluted in a sterile 0.9% (w/v) NaCl solution containing 1,65 mg/ml bovine serum albumin (Sigma, St Louis, Mo., USA) at a final ethanol concentration of 10% (v/v). The drug solutions were freshly prepared once a week, protected from light and kept at 4° C. Mice were treated i.p. with 120 mg/kg of 4-oxo-4-HPR or 4-HPR for 4 days. The two drugs were delivered at a volume of 10 ml/kg of body weight. Control mice were treated with the same solvent of 4-oxo-4HPR and 4-HPR. Three mice per group were used. Blood samples, for drug and retinol measurements, were drawn from the retroorbital plexus of anesthetized mice before and 5 hr after the last treatment, collected into heparinized tubes and wrapped in aluminium foil in order to protect them from light. Retinol and drug concentrations in plasma were assayed by HPLC as previously described (Formelli et al., Cancer Res. 1989, 49:6149–6152) and as above reported (see Exemple 1) and are reported in Table 3.

SKOV-3 = assay: Growth inhibition (sulforhodamine B assay); type: cell-based; conditions: Homo sapiens, read-out: 50% Inhibitory Concentrations (IC50) at 72 h
Description: (§3) The following human ovarian carcinoma cell lines were tested: A2780 was obtained from Dr. R. F. Ozols (National Cancer Institute, Bethesda, Md., USA); IGROV-1 was obtained from Dr. J. Benard (Villejuif, France); OVCA432 was obtained from Dr. R. C. Knapp (Boston, Mass., USA); OAW42 and SKOV-3 were purchased from ATCC (Rockville, Md., USA). A2780/HPR, a 4-HPR— resistant ovarian carcinoma cell line, was obtained in our laboratory by continuous exposure of A2780 cells to increasing concentrations of 4-EPR as previously described (Appierto et al., Br. J. Cancer, 2001, 84:1528–1534; Prinetti et al., J. Biol. Chem., 2003, 278:5574–5583). Briefly, cells surviving 60 transplants in 4-HPR —containing medium (3 transplants at 1 μM, 11 transplants at 2 μM, 8 transplants at 3 μM, and 38 transplants at 5 μM) were cloned by limiting dilution. […] Therefore, A2780/HPR cells were continuously maintained in 5 μM 4-HPR and seeded without 4-HPR in all the experiments performed to test their sensitivity to 4-oxo-4-HPR.
as §1, §2

OAW42 = assay: Growth inhibition (sulforhodamine B assay); type: cell-based; conditions: Homo sapiens, read-out: 50% Inhibitory Concentrations (IC50) at 72 h
Description: as §3, §1, §2

IC50 (SK-N-BE; SK-N-BE) [nM]	IC50 (SKOV-3; SK-OV-3, SKOV-3, 72 h) [nM]	SMILES	induction of apoptosis (DNA fragmentation, fold versus control cells) (A2780/HPR)	cell sensitivity (FIG. 4), compared with 4-HPR, in words (GI-LI-N; GI-LI-N, 72 hr)	IC50 (GI-LI-N) [nM]	cell sensitivity (FIG. 4), compared with 4-HPR, in words (SK-N-MC; 72 hr)	IC50 (SK-N-MC) [nM]	IC50 (SK-N-BE) [nM]	cell sensitivity (FIG. 4), compared with 4-HPR, in words (SK-N-BE; SK-N-BE, 72 hr)	cell sensitivity (FIG. 4), compared with 4-HPR, in words (SK-N-SH; 72 hr)	IC50 (SK-N-SH) [nM]	reduction of plasma retinol levels, in words (plasma retinol levels)	Retinol % reduction (plasma retinol levels) [%]	IC50 (SKOV-3; SK-OV-3, 72 h) [nM]	IC50 (OAW42; OAW-42, 72 h) [nM]	IC50 (GI-LI-N; GI-LI-N) [nM]	IC50 (OAW42; OAW-42, OAW42, 72 h) [nM]
		CC1=C(/C=C/C(C)=C/C=C/C(C)=C/C(=O)Nc2ccc(O)cc2)C(C)(C)CCC1=O [4-oxo-4-HPR, 4-oxo-N-(4-hydroxyphenyl)retinamide]	induced apoptosis	equally sensitive	600	more sensitive only at the lowest concentration tested (0.3 μM)	400	1000	more sensitive to 4-oxo-HPR than to 4-HPR	more sensitive to 4-oxo-HPR than to 4-HPR	3000	reduction only slightly higher than observed in control mice	38	2000	3000		
5000	8000	CC1=C(/C=C/C(C)=C/C=C/C(C)=C/C(=O)Nc2ccc(O)cc2)C(C)(C)CCC1 [4-HPR, N-(4-hydroxyphenyl)retinamide, reference compound]	had no effect				700				5000		56			700	10000
